# Where two headings read alike, the source gives them in different places.
# Columns and labels:
# sedge, umbrella = assay: Test B flooded paddy test; type: in vivo, Cyperus difformis; conditions: Cyperus difformis, Flood, 250 g ai/ha; 0 to 100 scale where 0 is no effect and 100 is complete control; read-out: Plant response rating, Sedge, Umbrella
# Summary of the method: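 Greenhouse flooded-pot test: compounds dosed into 3 cm standing water over 2-leaf plants, flood held constant. Rated visually after 13–15 days on 0–100 (complete control = 100); a dash marks no test result.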
# yellow nutsedge = assay: Test C postemergence; type: in vivo, Cyperus esculentus; conditions: for pest or weed control at 16 g/ha / pest or weed control at 125 g/ha / pest or weed control at 62 g/ha: Cyperus, post-emergence; for pest or weed control at 16 g/ha: 16 g ai/ha, 0 is no effect, 100 is complete control, read-out: Plant response rating (0 to 100), Nutsedge, Yellow; for pest or weed control at 125 g/ha: 125 g ai/ha; for pest or weed control at 125 g/ha / pest or weed control at 62 g/ha: read-out: Plant response rating, Nutsedge, Yellow; for pest or weed control at 62 g/ha: Postemergence, 62 g ai/ha
# Summary of the method: (§1)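 Sown in loam/sand → sprayed pre-emergence; or grown to 1–4 leaves in peat mix → sprayed post-emergence. Same solvent/surfactant formulation both ways. Greenhouse 13–15 d. Score 0–100 visual.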
# wheat = assay: Test A postemergence; type: in vivo, Triticum aestivum; conditions: Triticum aestivum, post-emergence, 240 h; for plant injury at 125 g/ha: 125 g ai/ha, read-out: Wheat plant response rating
# Summary of the method: (§2)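 Injury scores run from 0, no effect, to 100, complete control, judged by eye against untreated plants roughly 10 days after treatment. Chemicals carried a surfactant in a non-phytotoxic solvent and went onto loam–sand soil preemergence or onto one- to two-leaf seedlings postemergence.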
# morningglory = assay: Test C postemergence; type: in vivo, Ipomoea coccinea; conditions: for pest or weed control at 16 g/ha / pest or weed control at 125 g/ha / pest or weed control at 62 g/ha: Ipomoea, post-emergence; for pest or weed control at 16 g/ha: 16 g ai/ha, 0 is no effect, 100 is complete control, read-out: Plant response rating (0 to 100), Morningglory; for pest or weed control at 125 g/ha: 125 g ai/ha; for pest or weed control at 125 g/ha / pest or weed control at 62 g/ha: read-out: Plant response rating, Morningglory; for pest or weed control at 62 g/ha: Postemergence, 62 g ai/ha
# Summary of the method: as §1
# barnyardgrass [1] = assay: Test A preemergence; type: in vivo, Echinochloa crus-galli; conditions: Echinochloa crus-galli, pre-emergence, 240 h, 0 to 100 scale where 0 is no effect and 100 is complete control; for pest or weed control at 125 g/ha: 125 g ai/ha
# Summary of the method: as §2
# blackgrass = assay: Test C postemergence; type: in vivo, Alopecurus myosuroides; conditions: Alopecurus myosuroides, post-emergence; for pest or weed control at 16 g/ha: 16 g ai/ha, 0 is no effect, 100 is complete control, read-out: Plant response rating (0 to 100), Blackgrass; for pest or weed control at 125 g/ha: 125 g ai/ha; for pest or weed control at 125 g/ha / pest or weed control at 31 g/ha / pest or weed control at 62 g/ha: scale 0 to 100 (0 no effect, 100 complete control); for pest or weed control at 31 g/ha: 31 g ai/ha, 13 to 15 days; for pest or weed control at 62 g/ha: 62 g ai/ha
# Summary of the method: as §1
# oilseed rape = assay: Test C postemergence; type: in vivo, Brassica napus; conditions: for plant injury at 16 g/ha / plant injury at 125 g/ha / plant injury at 62 g/ha: Brassica napus, post-emergence; for plant injury at 16 g/ha: 16 g ai/ha, 0 is no effect, 100 is complete control, read-out: Plant response rating (0 to 100), Oilseed Rape; for plant injury at 125 g/ha: 125 g ai/ha; for plant injury at 125 g/ha / plant injury at 62 g/ha: read-out: Plant response rating, Oilseed Rape; for plant injury at 62 g/ha: Postemergence, 62 g ai/ha
# Summary of the method: as §1
# johnsongrass = assay: Test C postemergence; type: in vivo, Sorghum halepense; conditions: for pest or weed control at 16 g/ha / pest or weed control at 125 g/ha / pest or weed control at 62 g/ha: Sorghum halepense, post-emergence; for pest or weed control at 16 g/ha: 16 g ai/ha, 0 is no effect, 100 is complete control, read-out: Plant response rating (0 to 100), Johnsongrass; for pest or weed control at 125 g/ha: 125 g ai/ha; for pest or weed control at 125 g/ha / pest or weed control at 62 g/ha: read-out: Plant response rating, Johnsongrass; for pest or weed control at 62 g/ha: Postemergence, 62 g ai/ha
# Summary of the method: as §1
# barnyardgrass [2] = assay: Test C postemergence; type: in vivo, Echinochloa crus-galli; conditions: Echinochloa crus-galli, post-emergence; for pest or weed control at 16 g/ha: 16 g ai/ha, 0 is no effect, 100 is complete control, read-out: Plant response rating (0 to 100), Barnyardgrass; for pest or weed control at 125 g/ha: 125 g ai/ha; for pest or weed control at 125 g/ha / pest or weed control at 31 g/ha / pest or weed control at 62 g/ha: scale 0 to 100 (0 no effect, 100 complete control); for pest or weed control at 31 g/ha: 31 g ai/ha, 13 to 15 days; for pest or weed control at 62 g/ha: 62 g ai/ha
# Summary of the method: as §1
# kochia = assay: Test C postemergence; type: in vivo, Kochia scoparia; conditions: Bassia scoparia, post-emergence; for pest or weed control at 16 g/ha: 16 g ai/ha, 0 is no effect, 100 is complete control, read-out: Plant response rating (0 to 100), Kochia; for pest or weed control at 125 g/ha: 125 g ai/ha; for pest or weed control at 125 g/ha / pest or weed control at 62 g/ha: read-out: Plant response rating, Kochia; for pest or weed control at 62 g/ha: Postemergence, 62 g ai/ha
# Summary of the method: as §1
# large (Lg) crabgrass = assay: Test C postemergence; type: in vivo, Digitaria sanguinalis; conditions: Digitaria sanguinalis, post-emergence; for pest or weed control at 16 g/ha: 16 g ai/ha, 0 is no effect, 100 is complete control, read-out: Plant response rating (0 to 100), Crabgrass, Large; for pest or weed control at 125 g/ha: 125 g ai/ha; for pest or weed control at 125 g/ha / pest or weed control at 62 g/ha: read-out: Plant response rating, Crabgrass, Large; for pest or weed control at 62 g/ha: Postemergence, 62 g ai/ha
# Summary of the method: as §1
# [3] = postemergence, visual rating, scale 0 to 100 (0 no effect, 100 complete control)
# [4] = scale 0 to 100 (0 no effect, 100 complete control)
# [5] = 0 to 100 scale where 0 is no effect and 100 is complete control
# [6] = read-out: Plant response rating, Barnyardgrass
# [7] = postemergence, visual rating, read-out: Plant response rating, Blackgrass
# [8] = Postemergence, read-out: Plant response rating, Blackgrass
# [9] = postemergence, visual rating, read-out: Plant response rating, Barnyardgrass
# [10] = Postemergence, read-out: Plant response rating, Barnyardgrass
# [11] = 31 g ai/ha, postemergence, visual rating, scale 0 to 100 (0 no effect, 100 complete control), 13 to 15 days
SMILES,"pest or weed control at 250 g/ha (sedge, umbrella) [%]",pest or weed control at 16 g/ha (yellow nutsedge; postemergence) [%],pest or weed control at 125 g/ha (yellow nutsedge; [3]) [%],pest or weed control at 62 g/ha (yellow nutsedge; [4]) [%],plant injury at 125 g/ha (wheat; [5]) [%],pest or weed control at 16 g/ha (morningglory; postemergence) [%],pest or weed control at 125 g/ha (morningglory; [3]) [%],pest or weed control at 62 g/ha (morningglory; [4]) [%],pest or weed control at 125 g/ha (barnyardgrass [1]; [6]) [%],pest or weed control at 16 g/ha (blackgrass; postemergence) [%],pest or weed control at 125 g/ha (blackgrass; [7]) [%],pest or weed control at 62 g/ha (blackgrass; [8]) [%],plant injury at 16 g/ha (oilseed rape; postemergence) [%],plant injury at 125 g/ha (oilseed rape; [3]) [%],plant injury at 62 g/ha (oilseed rape; [4]) [%],pest or weed control at 16 g/ha (johnsongrass; postemergence) [%],pest or weed control at 125 g/ha (johnsongrass; [3]) [%],pest or weed control at 62 g/ha (johnsongrass; [4]) [%],pest or weed control at 16 g/ha (barnyardgrass [2]; postemergence) [%],pest or weed control at 125 g/ha (barnyardgrass [2]; [9]) [%],other results
"Fc1cccc(Oc2ncc(Cl)cn2)c1-n1cc(C(F)F)nn1 [Compound 141, 5-chloro-2-[2-[4-(difluoromethyl)-1H-1,2,3-triazol-1-yl]-3-fluorophenoxy]pyrimidine]",90,10,15,15,80,85,100,95,100,5,60,35,50,98,95,5,30,10,15,40,"plant injury at 31 g/ha (wheat; 31 g ai/ha, 0 to 100 scale, 0 no effect, 100 complete control, read-out: Plant response rating, Wheat): 10%; pest or weed control at 31 g/ha (barnyardgrass [1]; 31 g ai/ha, visual, approximately 10 days, read-out: Plant response rating, Barnyardgrass): 90%; pest or weed control at 31 g/ha (blackgrass; [8]): 35%; pest or weed control at 31 g/ha (barnyardgrass [2]; [10]): 15%; pest or weed control at 62 g/ha (barnyardgrass [2]; [10]): 20%; pest or weed control at 16 g/ha (kochia; postemergence): 100%; pest or weed control at 125 g/ha (kochia; [3]): 100%; pest or weed control at 62 g/ha (kochia; [4]): 100%; pest or weed control at 16 g/ha (large (Lg) crabgrass; postemergence): 5%; pest or weed control at 125 g/ha (large (Lg) crabgrass; [3]): 45%; pest or weed control at 62 g/ha (large (Lg) crabgrass; [4]): 10%"
"FC(F)c1cn(-c2ccccc2Oc2ncc(Cl)cn2)nn1 [Compound 147, 5-chloro-2-[2-[4-(difluoromethyl)-1H-1,2,3-triazol-1-yl]phenoxy]pyrimidine]",75,0,5,0,50,70,80,75,100,0,10,0,25,95,75,5,10,5,0,10,"Nutsedge, Yellow plant response rating (yellow nutsedge; [11]): 0; plant injury at 500 g/ha (wheat; 500 g ai/ha, 0 to 100 scale where 0 is no effect and 100 is complete control, read-out: Plant response rating, Wheat): 80%; Morningglory plant response rating (morningglory; [11]): 70; pest or weed control at 500 g/ha (barnyardgrass [1]; 500 g ai/ha, read-out: Barnyardgrass plant response rating): 100%; pest or weed control at 31 g/ha (blackgrass; postemergence, visual rating, read-out: Blackgrass plant response rating): 0%; Oilseed Rape plant response rating (oilseed rape; [11]): 40; Johnsongrass plant response rating (johnsongrass; [11]): 5; pest or weed control at 31 g/ha (barnyardgrass [2]; postemergence, visual rating, read-out: Barnyardgrass plant response rating): 5%; pest or weed control at 62 g/ha (barnyardgrass [2]; [10]): 5%; pest or weed control at 16 g/ha (kochia; postemergence): 40%; pest or weed control at 31 g/ha (kochia; 31 g ai/ha, postemergence, visual rating, scale 0 to 100 (0 no effect, 100 complete control), 13 to 15 days, read-out: Kochia plant response rating): 90%; pest or weed control at 125 g/ha (kochia; [3]): 100%; pest or weed control at 62 g/ha (kochia; [4]): 95%; pest or weed control at 16 g/ha (large (Lg) crabgrass; postemergence): 5%; pest or weed control at 31 g/ha (large (Lg) crabgrass; 31 g ai/ha, postemergence, visual rating, scale 0 to 100 (0 no effect, 100 complete control), 13 to 15 days, read-out: Crabgrass, Large plant response rating): 5%; pest or weed control at 125 g/ha (large (Lg) crabgrass; [3]): 10%; pest or weed control at 62 g/ha (large (Lg) crabgrass; [4]): 10%"

# Source: patent US9695155B2, “Herbicidal substituted pyrimidinyloxy benzene compounds” (E. I. DU PONT DE NEMOURS AND COMPANY, priority 2013, dated 2017)
